Test in all cases: MIC, microtitre dilution test (growth by optical density at 620 nm)
Common to all, as to conditions: Table 4

Assay [1] deals with Trichophyton rubrum DSM 4167. It counts as cell-based. As to the method:
(§1) Nutrient: Mycological slant agar for the pre-culture of moulds [table] The test substances are predissolved in dimethyl sulfoxide (DMSO) and tested in a dilution series of 1:2. Bacteria and yeast are cultured overnight in CASO bouillon, the mould is cultured overnight on mycological slant agar, and washed off with 10 ml of 0.85% sodium chloride solution (+0.1% TritonX-100). All the test organisms are adjusted to an organism count of 1-5×10^6 CFU/ml using 0.85% sodium chloride solution. The test substances are pre-pipetted into microtitre plates in an amount of 8 μl per well. Pre-diluted organism suspensions are diluted 1:100 in CASO bouillon (bacteria and yeast) or Sabouraud 2% glucose bouillon (mould) and are added in an amount of 192 μl per well to the test substances. The test batches are incubated for 48 hours at 37° C. (bacteria and yeast) or for 5 days at 28° C. (mould). After incubation, the growth is evaluated by reference to the turbidity of the test batches (optical density) at 620 nm in a microplate reader. The minimum inhibitory concentration (MIC value) is the concentration of substance at which (compared with the growth of the control) an appreciable inhibition of growth (≦20% growth) of the test organisms is ascertained. One microtitre plate is used for each test organism and substance concentration. All the substances are tested in duplicate.

The test system of assay [2] is Epidermophyton floccosum DSM 10709. It counts as cell-based. As to the method: as §1
In assay [3] the test system is Trichoderma longibrachiatum DSM 768. It counts as cell-based. The method, then:
as §1

The test system of assay [4] is Aspergillus niger ATCC 6175. It counts as cell-based. As to the method:
as §1

The test system of assay [5] is Tr. mentagrophytes ATCC 9533. It counts as cell-based. The method, then:
as §1

Assay [6] deals with Staphylococcus aureus (methicillin-resistant) NCTC 12493. The class given is cell-based. The method in brief:
(§2)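 Compounds in DMSO, 1:2 dilution series, against bacteria adjusted to 1-5×10^6 CFU/ml then diluted 1:100 in CASO bouillon; 48 h at 37° C. Growth read as turbidity at 620 nm. MIC is the concentration giving ≦20% growth versus control; duplicate testing.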

The subject of assay [7] is Candida albicans ATCC 10259. It counts as cell-based.
The test system of assay [8] is Staphylococcus hominis DMS 20328. The class given is cell-based. The method in brief: as §2
Assay [9] deals with Corynebacterium xerosis ATCC 373. It counts as cell-based. The method in brief: as §2
The subject of assay [10] is Actinomyces viscosus DSM 43329. The class given is cell-based. The method in brief: as §2
For assay [11], the system named is Micrococcus luteus ATCC 9341. It counts as cell-based. The method in brief:
as §2

The test system of assay [12] is Staphylococcus aureus (rifampicin-resistant) NCTC 10703. It counts as cell-based. The method in brief: as §2
The test system of assay [13] is Porphyromonas gingivalis DSM 20709. The class given is cell-based. The method in brief:
as §2

The subject of assay [14] is Staphylococcus epidermidis ATCC 12228. It counts as cell-based. The method in brief:
as §2

The next assay has as its system P. ovale ATCC 14521. It counts as cell-based.
Assay [15] deals with Streptococcus mutans ATCC 25175. The class given is cell-based. The method in brief: as §2
For assay [16], the system named is Enterococcus hirae ATCC 10541. The class given is cell-based. The method in brief:
as §2

In assay [17] the test system is Streptococcus sobrinus DSM 20742. It counts as cell-based. The method in brief: as §2
Assay [18] concerns Selenomonas artemidis ATCC 43528. It counts as cell-based. The method in brief: as §2
In assay [19] the test system is Propionibacterium acnes ATCC 25746. The class given is cell-based. The method in brief:
as §2

Assay [20] deals with Staphylococcus aureus (methicillin-resistant) NCTC 11940. The class given is cell-based. The method in brief: as §2
Assay [21] deals with Staphylococcus aureus (penicillin-resistant) NCTC 10443. It counts as cell-based. The method in brief:
as §2

The test system of assay [22] is Staphylococus aureus ATCC 9144. It counts as cell-based, Staphylococcus aureus. The method, then: as §1, with “All” for “Nutrient: Mycological slant agar for the pre-culture of moulds [table] The test substances are predissolved in dimethyl sulfoxide (DMSO) and tested in a dilution series of 1:2. Bacteria and yeast are cultured overnight in CASO bouillon, the mould is cultured overnight on mycological slant agar, and washed off with 10 ml of 0.85% sodium chloride solution (+0.1% TritonX-100). All”

Structures are written as SMILES. Bounds are passed on as bounds.

One molecule from US6967215B2, “Tetrahydrocarbazoles, a process for the preparation of those compounds, and the use thereof” (Ciba Specialty Chemicals Corporation, priority 2000, dated 2005) can be followed below.

`O=C1NC(=O)C2C1c1[nH]c3ccc(Br)cc3c1C1CCCCCC12` (centres unmarked) [compound 32]: the “MIC Trichophyton rubrum DSM 4167” value in [1] came out at 10 ppm. For the same molecule, the “MIC Epidermophyton floccosum DSM 10709” value in assay [2] was 5.0 ppm. Further, the “MIC Trichoderma longibrachiatum DSM 768” value in assay [3] is more than 10 ppm. In assay [4], the “MIC Aspergillus niger ATCC 6175” value is more than 10 ppm. Moreover, the “MIC Tr. mentagrophytes ATCC 9533” value in assay [5] worked out at 10 ppm. Further, the “MIC Staphylococcus aureus (methicillin-resistant) NCTC 12493” value in assay [6] turned out to be 5.0 ppm. In addition, in [7], the “MIC Candida albicans ATCC 10259” value was more than 10 ppm. In [8], the “MIC Staphylococcus hominis DSM 20328” value came out at 5.0 ppm. Also, the “MIC Corynebacterium xerosis ATCC 373” value in assay [9] is reported as 5.0 ppm. Moreover, in [10], the “MIC Actinomyces viscosus DSM 43329” value amounted to 6.25 ppm. Also, the “MIC Micrococcus luteus ATCC 9341” value in [11] is 5.0 ppm. Also, the “MIC Staphylococcus aureus (rifampicin-resistant) NCTC 10703” value in assay [12] was determined as 5.0 ppm. For the same molecule, the “MIC Porphyromonas gingivalis DSM 20709” value in assay [13] amounted to 3.125 ppm. Also, the “MIC S. epidermidis ATCC 12228” value in assay [14] was determined as 10 ppm. In the assay with P. ovale ATCC 14521, the “MIC P. ovale ATCC 14521” value is reported as more than 10 ppm. For the same molecule, the “MIC Streptococcus mutans ATCC 25175” value in [15] is 5.0 ppm. For the same molecule, the “MIC Enterococcus hirae ATCC 10541” value in assay [16] is given as more than 10 ppm. Besides, in assay [17], the “MIC Streptococcus sobrinus DSM 20742” value is 6.25 ppm. The “MIC Selenomonas artemidis ATCC 43528” value in assay [18] came out at 50.0 ppm. Besides, the “MIC Propionibacterium acnes ATCC 25746” value in assay [19] turned out to be 6.25 ppm. Further, in assay [20], the “MIC Staphylococcus aureus (methicillin-resistant) NCTC 11940” value is given as 5.0 ppm. Besides, in assay [21], the “MIC Staphylococcus aureus (penicillin-resistant) NCTC 10443” value worked out at 5.0 ppm. Further, the “MIC Staphylococus aureus ATCC 9144” value in assay [22] was 5.0 ppm.
